Data published in ChEMBL document CHEMBL1201862, “PubChem BioAssay data set” (2004).
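How tested: cells in 96-well plates exposed to compound for 48 hours at five concentrations. GI50 marks 50% less growth.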 Calls of active or inactive are those of the source. Rule as the data show it: active = GI50 up to about 1.1 µM and inactive = higher.

Assays:
Test in all cases: NCI-60 cell line screen, 48 h
786-0 = system: 786-0
SK-OV-3 = system: SK-OV-3
A549 = system: A549
ACHN = system: ACHN
SW-620 = system: SW-620
CAKI-1 = system: CAKI-1
Hs-578T = system: Hs-578T
HCC 2998 = system: HCC 2998
CCRF-CEM = system: CCRF-CEM
HOP-92 = system: HOP-92
HCT-116 = system: HCT-116
OVCAR-8 = system: OVCAR-8
KM12 = system: KM12
TK-10 = system: TK-10
HOP-62 = system: HOP-62
MDA-MB-231 = system: MDA-MB-231
RPMI-8226 = system: RPMI-8226
UACC-62 = system: UACC-62
SF-268 = system: SF-268
PC-3 = system: PC-3
IGROV-1 = system: IGROV-1
SN12C = system: SN12C
K562 = system: K562
COLO 205 = system: COLO 205
BT-549 = system: BT-549
NCI-H23 = system: NCI-H23
NCI-H460 = system: NCI-H460
MDA-N = system: MDA-N
HCT-15 = system: HCT-15
T47D = system: T47D
UACC-257 = system: UACC-257
HT-29 = system: HT-29
SF-295 = system: SF-295
SK-MEL-2 = system: SK-MEL-2
NCI/ADR-RES = system: NCI/ADR-RES
EKVX = system: EKVX
Malme-3M = system: Malme-3M
A498 = system: A498
SNB-19 = system: SNB-19
OVCAR-4 = system: OVCAR-4
LOX IMVI = system: LOX IMVI
OVCAR-5 = system: OVCAR-5
MCF7 = system: MCF7
U-251 = system: U-251
RXF 393 = system: RXF 393
MOLT-4 = system: MOLT-4
NCI-H226 = system: NCI-H226
OVCAR-3 = system: OVCAR-3
SK-MEL-5 = system: SK-MEL-5
DU-145 = system: DU-145
SK-MEL-28 = system: SK-MEL-28
UO-31 = system: UO-31
MDA-MB-435 = system: MDA-MB-435
M14 = system: M14
NCI-H522 = system: NCI-H522
SNB-75 = system: SNB-75
HL-60 = system: HL-60
SF-539 = system: SF-539

For `CCc1ccc(CCN2CCCCC2)nc1`, the GI50 (786-0) was > 100 µM (inactive), the GI50 (SK-OV-3) was > 100 µM (inactive) and the GI50 (A549) was > 100 µM (inactive). The GI50 (ACHN) was > 100 µM (inactive), the GI50 (SW-620) was > 100 µM (inactive) and the GI50 (CAKI-1) was > 100 µM (inactive). For the same molecule, the GI50 (Hs-578T) was 56.9 µM (inactive), the GI50 (HCC 2998) was > 100 µM (inactive) and the GI50 (CCRF-CEM) was > 100 µM (inactive). The GI50 (HOP-92) was 46.3 µM (inactive), the GI50 (HCT-116) was > 100 µM (inactive) and the GI50 (OVCAR-8) was > 100 µM (inactive). The GI50 (KM12) was > 100 µM (inactive), the GI50 (TK-10) was > 100 µM (inactive) and the GI50 (HOP-62) was > 100 µM (inactive). For the same molecule, the GI50 (MDA-MB-231) was > 100 µM (inactive), the GI50 (RPMI-8226) was 96.8 µM (inactive) and the GI50 (UACC-62) was > 100 µM (inactive). For the same molecule, the GI50 (SF-268) was > 100 µM (inactive), the GI50 (PC-3) was > 100 µM (inactive) and the GI50 (IGROV-1) was 58.9 µM (inactive). The GI50 (SN12C) was > 100 µM (inactive), the GI50 (K562) was > 100 µM (inactive) and the GI50 (COLO 205) was > 100 µM (inactive). For the same molecule, the GI50 (BT-549) was > 100 µM (inactive), the GI50 (NCI-H23) was > 100 µM (inactive) and the GI50 (NCI-H460) was > 100 µM (inactive). The GI50 (MDA-N) was > 100 µM (inactive), the GI50 (HCT-15) was greater than 100 µM and the GI50 (T47D) was > 100 µM (inactive). The GI50 (UACC-257) was > 100 µM (inactive), the GI50 (HT-29) was > 100 µM (inactive) and the GI50 (SF-295) was > 100 µM (inactive). The GI50 (SK-MEL-2) was > 100 µM (inactive), the GI50 (NCI/ADR-RES) was > 100 µM (inactive) and the GI50 (EKVX) was > 100 µM (inactive). The GI50 (Malme-3M) was > 100 µM (inactive), the GI50 (A498) was > 100 µM (inactive) and the GI50 (SNB-19) was > 100 µM (inactive). For the same molecule, the GI50 (OVCAR-4) was > 100 µM (inactive), the GI50 (LOX IMVI) was > 100 µM (inactive) and the GI50 (OVCAR-5) was > 100 µM (inactive). For the same molecule, the GI50 (MCF7) was > 100 µM (inactive), the GI50 (U-251) was > 100 µM (inactive) and the GI50 (RXF 393) was > 100 µM (inactive). The GI50 (MOLT-4) was > 100 µM (inactive), the GI50 (NCI-H226) was > 100 µM (inactive) and the GI50 (OVCAR-3) was 92.3 µM (inactive). For the same molecule, the GI50 (SK-MEL-5) was > 100 µM (inactive), the GI50 (DU-145) was > 100 µM (inactive) and the GI50 (SK-MEL-28) was > 100 µM (inactive). The GI50 (UO-31) was > 100 µM (inactive), the GI50 (MDA-MB-435) was > 100 µM (inactive) and the GI50 (M14) was > 100 µM (inactive). For the same molecule, the GI50 (NCI-H522) was 52.1 µM (inactive).

With `O=c1cccc2n1CC1CNC[C@H]2C1` [CYTISINICLINE] the GI50 (786-0) was > 100 µM (inactive), the GI50 (SK-OV-3) was > 100 µM (inactive) and the GI50 (A549) was > 100 µM (inactive). For the same molecule, the GI50 (ACHN) was > 100 µM (inactive), the GI50 (SW-620) was > 100 µM (inactive) and the GI50 (CAKI-1) was > 100 µM (inactive). For the same molecule, the GI50 (Hs-578T) was > 100 µM (inactive), the GI50 (HCC 2998) was > 100 µM (inactive) and the GI50 (CCRF-CEM) was > 100 µM (inactive). The GI50 (HOP-92) was > 100 µM (inactive), the GI50 (HCT-116) was > 100 µM (inactive) and the GI50 (OVCAR-8) was > 100 µM (inactive). The GI50 (KM12) was > 100 µM (inactive), the GI50 (TK-10) was > 100 µM (inactive) and the GI50 (HOP-62) was > 100 µM (inactive). The GI50 (MDA-MB-231) was > 100 µM (inactive), the GI50 (UACC-62) was > 100 µM (inactive) and the GI50 (SF-268) was > 100 µM (inactive). The GI50 (PC-3) was > 100 µM (inactive), the GI50 (IGROV-1) was > 100 µM (inactive) and the GI50 (SN12C) was > 100 µM (inactive). For the same molecule, the GI50 (K562) was > 100 µM (inactive), the GI50 (COLO 205) was > 100 µM (inactive) and the GI50 (BT-549) was > 100 µM (inactive). For the same molecule, the GI50 (NCI-H23) was > 100 µM (inactive), the GI50 (NCI-H460) was > 100 µM (inactive) and the GI50 (MDA-N) was > 100 µM (inactive). The GI50 (HCT-15) was greater than 100 µM, the GI50 (T47D) was > 100 µM (inactive) and the GI50 (UACC-257) was > 100 µM (inactive). For the same molecule, the GI50 (HT-29) was > 100 µM (inactive), the GI50 (SF-295) was > 100 µM (inactive) and the GI50 (SK-MEL-2) was > 100 µM (inactive). For the same molecule, the GI50 (NCI/ADR-RES) was > 100 µM (inactive), the GI50 (EKVX) was > 100 µM (inactive) and the GI50 (Malme-3M) was > 100 µM (inactive). The GI50 (SNB-19) was > 100 µM (inactive), the GI50 (OVCAR-4) was > 100 µM (inactive) and the GI50 (LOX IMVI) was > 100 µM (inactive). The GI50 (OVCAR-5) was > 100 µM (inactive), the GI50 (MCF7) was > 100 µM (inactive) and the GI50 (U-251) was > 100 µM (inactive). The GI50 (RXF 393) was > 100 µM (inactive), the GI50 (SNB-75) was > 100 µM (inactive) and the GI50 (MOLT-4) was > 100 µM (inactive). The GI50 (OVCAR-3) was > 100 µM (inactive), the GI50 (SK-MEL-5) was > 100 µM (inactive) and the GI50 (DU-145) was > 100 µM (inactive). The GI50 (SK-MEL-28) was > 100 µM (inactive), the GI50 (UO-31) was > 100 µM (inactive) and the GI50 (MDA-MB-435) was > 100 µM (inactive). The GI50 (M14) was > 100 µM (inactive) and the GI50 (NCI-H522) was > 100 µM (inactive).

`CC(C)C(NC(=O)Oc1ccccc1)C(=O)NC1c2c(Br)sc(Br)c2C(=O)C1O` (configuration not stated) was tested, and the GI50 (786-0) was 8.79 µM (inactive), the GI50 (SK-OV-3) was > 25 µM (inactive) and the GI50 (A549) was > 25 µM (inactive). For the same molecule, the GI50 (ACHN) was 5.56 µM (inactive), the GI50 (SW-620) was 6.1 µM (inactive) and the GI50 (CAKI-1) was 6.81 µM (inactive). The GI50 (Hs-578T) was 8.95 µM (inactive), the GI50 (HCC 2998) was 4.2 µM (inactive) and the GI50 (CCRF-CEM) was 7.62 µM (inactive). For the same molecule, the GI50 (HCT-116) was 3.97 µM (inactive), the GI50 (OVCAR-8) was 4.6 µM (inactive) and the GI50 (KM12) was > 25 µM (inactive). For the same molecule, the GI50 (TK-10) was 8.49 µM (inactive), the GI50 (MDA-MB-231) was 5.11 µM (inactive) and the GI50 (UACC-62) was 4.02 µM (inactive). The GI50 (SF-268) was 6.24 µM (inactive), the GI50 (PC-3) was 8.53 µM (inactive) and the GI50 (IGROV-1) was 4.47 µM (inactive). The GI50 (SN12C) was 5.62 µM (inactive), the GI50 (K562) was 7.8 µM (inactive) and the GI50 (COLO 205) was 7.29 µM (inactive). The GI50 (BT-549) was 3.67 µM (inactive), the GI50 (NCI-H23) was 4.8 µM (inactive) and the GI50 (NCI-H460) was 5.02 µM (inactive). For the same molecule, the GI50 (MDA-N) was 11.6 µM (inactive), the GI50 (HCT-15) was 4.25 µM and the GI50 (T47D) was 6.34 µM (inactive). The GI50 (HL-60) was 9.12 µM (inactive), the GI50 (UACC-257) was 4.72 µM (inactive) and the GI50 (HT-29) was 4.2 µM (inactive). The GI50 (SF-295) was > 25 µM (inactive), the GI50 (SK-MEL-2) was 7.33 µM (inactive) and the GI50 (NCI/ADR-RES) was 5.87 µM (inactive). For the same molecule, the GI50 (EKVX) was 6.4 µM (inactive), the GI50 (Malme-3M) was 6.38 µM (inactive) and the GI50 (A498) was > 25 µM (inactive). The GI50 (SNB-19) was 4.93 µM (inactive), the GI50 (OVCAR-4) was 2.94 µM (inactive) and the GI50 (LOX IMVI) was 4.98 µM (inactive). The GI50 (OVCAR-5) was 4.91 µM (inactive), the GI50 (MCF7) was > 25 µM (inactive) and the GI50 (U-251) was 5.31 µM (inactive). The GI50 (RXF 393) was 3.75 µM (inactive), the GI50 (SNB-75) was > 25 µM (inactive) and the GI50 (MOLT-4) was 11.9 µM (inactive). For the same molecule, the GI50 (NCI-H226) was > 25 µM (inactive), the GI50 (OVCAR-3) was 4.14 µM (inactive) and the GI50 (SK-MEL-5) was 4.53 µM (inactive). For the same molecule, the GI50 (SF-539) was 14.2 µM (inactive), the GI50 (DU-145) was 9.4 µM (inactive) and the GI50 (SK-MEL-28) was 4.93 µM (inactive). The GI50 (UO-31) was 9.64 µM (inactive), the GI50 (MDA-MB-435) was 6.68 µM (inactive) and the GI50 (M14) was 4.58 µM (inactive).
